Consider 12 compounds from ChEMBL document CHEMBL1125030, “Boc-Trp-Orn(Z)-Asp-NH2 and derivatives: a new family of CCK antagonists” (J Med Chem, 1990).

The source made the active and inactive calls. The calls are words filed in the database; no cut-off is given here. Where a SMILES comes first, the peptide text is derived from it. [ ]: non-standard residue; d: D form. The star is where a group is joined. Phe(4-SO3H) = N[C@@H](Cc1ccc(S(=O)(=O)O)cc1)C(=O)O; sY = N[C@@H](Cc1ccc(OS(=O)(=O)O)cc1)C(=O)O; Nle = CCCC[C@H](N)C(=O)O; Orn = NCCC[C@H](N)C(=O)O; Cbz = O=C(OCc1ccccc1)*; Boc = CC(C)(C)OC(=O)*

For test [1], the target named is T1, Cholecystokinin receptor type A (Cavia porcellus, UniProt Q63931).
T1 sequence (Q63931 whole entry): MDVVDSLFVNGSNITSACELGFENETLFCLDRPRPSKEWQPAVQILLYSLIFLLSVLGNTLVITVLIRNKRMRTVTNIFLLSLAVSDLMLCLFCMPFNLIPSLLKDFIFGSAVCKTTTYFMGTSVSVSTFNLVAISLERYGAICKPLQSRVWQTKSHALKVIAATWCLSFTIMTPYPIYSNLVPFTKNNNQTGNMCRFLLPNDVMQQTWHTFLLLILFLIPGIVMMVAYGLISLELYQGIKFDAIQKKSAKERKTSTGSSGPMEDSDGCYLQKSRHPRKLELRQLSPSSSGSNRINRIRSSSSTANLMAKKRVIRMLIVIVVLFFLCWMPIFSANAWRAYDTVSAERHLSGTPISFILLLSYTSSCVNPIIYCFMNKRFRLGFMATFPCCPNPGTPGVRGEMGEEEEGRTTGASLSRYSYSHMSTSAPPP
Description: Apparent affinity to inhibit binding of [3H]pCCK-8 to Cholecystokinin type A receptor of guinea pig pancreatic membranes.

Test [2] in a line: Antagonist activity expressed as pA2, evaluated from the potency to stimulate amylase release from guinea pig pancreatic acini. Type of test: functional, Cavia porcellus.
For test [3], the species on record is Cavia porcellus. Description: Antagonist activity expressed as binding constant, evaluated from the potency to stimulate Amylase release from guinea pig pancreatic acini;Not significant.
Test [4] can be described thus: Agonist activity expressed as effective concentration that causes 50% stimulation of amylase release from guinea pig pancreatic acini.; ND means no significant activity at 10e-4 M.
Test [5] can be described thus: (§1) Antagonist activity expressed as binding constant, evaluated from the potency to stimulate Amylase release from guinea pig pancreatic acini. More on the design: species or system Cavia porcellus.
Test [6] is filed under the species Cavia porcellus. The description is as §1.
Test [7] can be described thus: Agonist activity expressed as effective concentration that causes 50% stimulation of amylase release from guinea pig pancreatic acini;Not significant. Type of test: functional, Cavia porcellus.
The nature of test [8]: Antagonist activity expressed as binding constant, evaluated from the potency to stimulate Amylase release from guinea pig pancreatic acini;Not significant at 10e-4 M. To be noted: Cavia porcellus.
A short description of test [9]: Agonist activity expressed as effective concentration that causes 50% stimulation of amylase release from guinea pig pancreatic acini.; ND means no significant activity at 10e-4 M. Type of test: functional, Cavia porcellus.
Test [10] is described as follows: Antagonist activity expressed as pA2, evaluated from the potency to stimulate Amylase release from guinea pig pancreatic acini. Type of test: functional, Cavia porcellus.
Test [11] can be described thus: Agonist activity expressed as effective concentration that causes 50% stimulation of Amylase release from guinea pig pancreatic acini.; ND means no significant activity at 10e-4 M. Type of test: functional, Cavia porcellus.
Test [12] is described as follows: Agonist activity expressed as effective concentration that causes 50% stimulation of amylase release from guinea pig pancreatic acini. Type of test: functional, Cavia porcellus.

In the case of `CC(C)(C)OC(=O)NCCC[C@H](NC(=O)[C@H](Cc1c[nH]c2ccccc12)NC(=O)OC(C)(C)C)C(=O)N[C@@H](CC(=O)O)C(N)=O` (Boc-Trp-[Orn](Boc)-Asp-NH2), the Ki in [1] stood at 29 µM. Besides, the pA2 in [2] came out at 4.62. The compound further had a Kb in the test filed under Cavia porcellus [3] of 0.23 µM. For the same compound, the EC50 result in [4] was “Not Active”.

As for `CC(C)(C)OC(=O)N[C@@H](Cc1c[nH]c2ccccc12)C(=O)N[C@@H](CCCNC(=O)OCc1ccccc1)C(=O)N[C@@H](CC(=O)O)C(N)=O` (Boc-Trp-[Orn](Cbz)-Asp-NH2), the Ki in [1] came to 0.2 µM. Further, in [2], the pA2 is given as 6.63. This compound displayed a Kb in the test filed under Cavia porcellus [3] of 0.23 µM. In addition, the EC50 entry in [4] is on record as “Not Active”.

For `CC(C)(C)OC(=O)N[C@@H](Cc1c[nH]c2ccccc12)C(=O)N[C@@H](CCCN)C(=O)N[C@@H](CC(=O)O)C(N)=O` (Boc-Trp-[Orn]-Asp-NH2), the Ki in [1] was 1000 µM.

As for `CC(C)(C)OC(=O)NCCC[C@H](NC(=O)[C@H](Cc1c[nH]c2ccccc12)NC(=O)OC(C)(C)C)C(=O)N[C@@H](CC(=O)O)C(=O)N[C@@H](Cc1ccccc1)C(N)=O` (Boc-W[Orn](Boc)DF-NH2), in [1], the Ki amounted to 5.2 µM. This compound also returned a pA2 in test [2] of 4.58. The Kb entry in the test listed under Cavia porcellus [3] is “inactive”. Moreover, the EC50 in test [5] came out at 13.6 µM.

In the case of `CC(C)(C)OC(=O)N[C@@H](Cc1c[nH]c2ccccc12)C(=O)N[C@@H](CCCNC(=O)OCc1ccccc1)C(=O)N[C@@H](CC(=O)O)C(=O)N[C@@H](Cc1ccccc1)C(N)=O` (Boc-W[Orn](Cbz)DF-NH2), the Kb in the test listed under Cavia porcellus [6] was 0.57 µM. In addition, in [1], the Ki turned out to be 0.34 µM. The pA2 in test [2] came to 6.25. Moreover, the EC50 result in test [4] is on record as “Not Active”.

`CC(C)(C)OC(=O)N[C@@H](Cc1c[nH]c2ccccc12)C(=O)N[C@@H](CCCN)C(=O)N[C@@H](CC(=O)O)C(=O)N[C@@H](Cc1ccccc1)C(N)=O` (Boc-W[Orn]DF-NH2) came in with an EC50 in test [7] of 13.8 µM. For the same compound, the Ki in test [1] came out at 14 µM. For the same compound, the Kb entry in test [8] is “inactive”.

In the test listed under Cavia porcellus [6], `CCCC[C@H](NC(=O)[C@H](Cc1ccc(S(=O)(=O)O)cc1)NC(=O)OC(C)(C)C)C(=O)NCC(=O)N[C@@H](Cc1c[nH]c2ccccc12)C(=O)N[C@@H](CCCNC(=O)OC(C)(C)C)C(=O)N[C@@H](CC(=O)O)C(=O)N[C@@H](Cc1ccccc1)C(N)=O` (Boc-[Phe(4-SO3H)][Nle]GW[Orn](Boc)DF-NH2) displayed a Kb of 1.1 µM. Also, the Ki in [1] turned out to be 0.66 µM. The pA2 in [2] is reported as 5.94. Besides, in test [9], the EC50 entry is on record as “Not Active”.

Take `CCCC[C@H](NC(=O)[C@H](Cc1ccc(S(=O)(=O)O)cc1)NC(=O)OC(C)(C)C)C(=O)NCC(=O)N[C@@H](Cc1c[nH]c2ccccc12)C(=O)N[C@@H](CCCNC(=O)OCc1ccccc1)C(=O)N[C@@H](CC(=O)O)C(N)=O` (Boc-[Phe(4-SO3H)][Nle]GW[Orn](Cbz)D-NH2): the Kb in the test listed under Cavia porcellus [6] was determined as 0.22 µM. The EC50 result in [4] is listed as “Not Active”.

Turning to `CCCC[C@H](NC(=O)[C@H](Cc1ccc(S(=O)(=O)O)cc1)NC(=O)OC(C)(C)C)C(=O)NCC(=O)N[C@@H](Cc1c[nH]c2ccccc12)C(=O)N[C@@H](CCCNC(=O)OCc1ccccc1)C(=O)N[C@@H](CC(=O)O)C(=O)N[C@@H](Cc1ccccc1)C(N)=O` (Boc-[Phe(4-SO3H)][Nle]GW[Orn](Cbz)DF-NH2), the Kb in the test filed under Cavia porcellus [6] amounted to 0.49 µM.

For `CCCC[C@H](NC(=O)[C@H](Cc1ccc(OS(=O)(=O)O)cc1)NC(=O)OC(C)(C)C)C(=O)NCC(=O)N[C@@H](Cc1c[nH]c2ccccc12)C(=O)N[C@@H](CCCNC(=O)OCc1ccccc1)C(=O)N[C@@H](CC(=O)O)C(N)=O` (Boc-[sY][Nle]GW[Orn](Cbz)D-NH2), in test [1], the Ki amounted to 0.23 µM. This compound gave a pA2 in [2] of 6.64.

Consider `CCCC[C@H](NC(=O)[C@H](Cc1ccc(OS(=O)(=O)O)cc1)NC(=O)OC(C)(C)C)C(=O)NCC(=O)N[C@@H](Cc1c[nH]c2ccccc12)C(=O)N[C@@H](CCCNC(=O)OCc1ccccc1)C(=O)N[C@@H](CC(=O)O)C(=O)N[C@@H](Cc1ccccc1)C(N)=O` (stereo in doubt; 1), for which the Ki in [1] turned out to be 0.31 µM. The compound further returned a pA2 in test [10] of 6.32. For the same compound, in [11], the EC50 entry was “Not Active”.

Take `CCCC[C@H](NC(=O)[C@H](Cc1ccc(OS(=O)(=O)O)cc1)NC(=O)OC(C)(C)C)C(=O)NCC(=O)N[C@@H](Cc1c[nH]c2ccccc12)C(=O)N[C@@H](CCCNC(=O)OCc1ccccc1)C(=O)N[C@@H](CC(=O)O)C(=O)N[C@@H](Cc1ccccc1)C(N)=O` (stereo in doubt; 2): in test [1], the Ki was determined as 0.34 µM. The same compound showed an EC50 in [12] of 0.022 µM.
